Data: patent publication US20240025849A1 (MAX DELBRÜCK-CENTRUM FÜR MOLEKULARE MEDIZIN IN DER …, priority 2020, published 2024)
“Also recorded” adds a separate entry of the source.

Assays:
[1] = test system: primary cultured neonatal microglia; assay: Propidium iodide based proliferation and cell death assay in microglia; settings: 2.5 μM C1, 48 hours, unstimulated
Description: (§1) Primary cultured neonatal microglia. For preparation of cultured neonatal microglia, P0-P3 mice were used. 10 brains were extracted, meninges and cerebellum were removed and put on ice with Hank's balanced salt solution (HBSS). The dissected brains were washed 3 times before adding 400 μL trypsin (0.1 mg/L) and DNAse (5 μg/L) in phosphate buffered saline (PBS). After 2 min of incubation with this solution, the reaction was blocked by adding plain medium. After removal of the medium, 1 mg DNAse was added and the cells were mechanically dissociated, with a Pasteur pipette followed by a glass pipette. The cells were centrifuged for 10 min at 129 g at 4° C. The supernatant was discarded. The pellet was resuspended in plain medium and plated (2.5 brains/flask) in Poly-L-Lysine coated flasks. The cells were washed after 2 days with PBS and incubated for another 7 days in plain medium. […]
Propidium iodide based proliferation and cell death assay. […] The intensity of the propidium iodide signal of the dead cells was measured using a microplate reader. Afterwards, all cells were killed with a 10 min incubation of 10% DMSO and the propidium iodide signal of all cells was measured. […] The percentage of dead cells was calculated by dividing the dead-cell-signal by the all-cell-signal. Proliferation was calculated as a relative value to the plain medium control.

[2] = test system: primary cultured neonatal microglia; assay: LPS induced NO release, HTS setup (Griess reagent); type: cell-based; settings: Mus musculus, 1 h pre-treatment, 1 μg/ml LPS 48 h, read-out: IC50, LPS-induced production of NO
Description: as §1, with “flasks.” for “flasks. The cells were washed after 2 days with PBS and incubated for another 7 days in plain medium.”
High throughput screening (HTS). […] Incubation with LPS and compounds was continued for 48 hours, followed by addition of 25 μl of 2-fold concentrated Griess reagent and absorbance reading at 540 nm in a plate reader (Safire2, Tecan, Maennedorf, Switzerland). Active compounds were identified by decreased Z-scores of the absorbance signal. […]
Concentration-dependent validation and viability determination. […] Each concentration was measured in duplicate. […] Finally, the resorufin fluorescence was detected at an excitation wavelength of 530 nm and emission of 570 nm. […]

[3] = test system: primary cultured neonatal astrocytes; assay: AlamarBlue assay in astrocytes; type: cell-based; settings: 2.5 μM C1, 48 hours, unstimulated
Description: Primary cultured neonatal astrocytes. The preparation of primary cultured neonatal astrocytes followed the preparation of the primary cultured neonatal microglia, described above. After the third shake off, the remaining astrocytes were trypsinated, washed with PBS and seeded into a 96 well plate (10 000 cells/well, 200 μL medium per well).
AlamarBlue assay. Cells were seeded according to the protocols described above, after compounds and stimuli were added, the cells were washed once with HBSS (37° C.) and 100 μl of a 1:10 AlamarBlue (Thermo Fisher Scientific) dilution in plain medium was added. The conversion of resazurin to resorufin was measured by absorbance (absorbance wavelength of 570 nm and a reference wavelength of 600 nm) after 3 hours.
The inventors evaluated the metabolic activity, proliferation and cell death of primary cultured neonatal microglia, primary cultured neonatal astrocytes and the oligodendrocyte cell line OLN-93 under physiological conditions. All cells were treated with 2.5 μM C1 in DMSO or the corresponding DMSO concentration (125×10-5 v/v) for 48 hours without any additional stimulation followed by either an AlamarBlue assay to measure the metabolic activity, or an propidium iodide based proliferation and cell death assay. The data of the AlamarBlue assay and proliferation assay were normalised to the plain medium control. […]

COc1ccc(NC(=O)C(NC(=O)C2CCCN2C(=O)OCc2ccccc2)c2ccc(OC)cc2)cc1 (stereo not drawn) [C1]
percentage of dead cells in microglia [1]: 8.49%
IC50 [2]: 224 nM
metabolic activity of astrocytes [3]: no influence; also recorded: not affected
